Experimental data reported in patent publication US4193997A, “Thieno[2,3-c] and [3,2-c]pyridines, process for their preparation and therapeutic applications thereof” (Parcor, priority 1977, dated 1980).

Key:
[1] = system: A.D.P.-induced blood-platelet aggregation; experiment: A.D.P.-induced blood-platelet aggregation after oral treatment of rats; type: in vivo, Wistar rats; conditions: Rattus norvegicus, 100 mg/kg oral, 3 hrs after treatment, 10 μM A.D.P. solution, read-out: Percent inhibition of blood-platelet aggregation, A.D.P.
Experimental: (§1) Blood is taken from the jugular vein of Wistar rats. From this citrated blood, and after centrifugation, a plasma containing 600,000±20,000 blood-platelets per mm 3 is reconstituted, which plasma is used in all aggregation determinations.
(§2) 0.4 ml plasma is placed in a siliconized tube provided with a magnet bar which is also siliconized. The tube is introduced into an aggregometer connected to an apparatus which records the optical density variations. When light transmission reaches a stable value, 0.5 ml of a solution containing 10 μM A.D.P. (adenosine diphosphate) is introduced into the tube.
Blood-platelet aggregation then induces an increase of light transmission, followed by a decrease subsequent to the disaggregation stage.
The maximal optical density variation thus determined characterizes the extent of the aggregation.
(§3) Different groups of 20 rats each are used. Each group is orally administered a test derivative, at a dosage of 100 mg/kg. The results obtained during both tests are reported in following Table I which indicates the percent inhibition of blood-platelet aggregation obtained with respect to the reference group, 3 hrs after treatment.

[2] = system: collagen-induced blood-platelet aggregation; experiment: Collagen-induced blood-platelet aggregation after oral treatment of rats; type: in vivo, Wistar rats; conditions: Rattus norvegicus, 100 mg/kg oral, 3 hrs after treatment, collagen (bovine tendon extract), read-out: Percent inhibition of blood-platelet aggregation, Collagen
Experimental: as §1, §2
The A.D.P. solution is substituted with a collagen solution (bovine tendon extract).
as §3

mouse = experiment: Antalgic action, mechanical stimulation method according to Haffner; type: in vivo; conditions: 100 mg/kg oral
Experimental: (a) Mechanical stimulation method according to Haffner (Deutsch. Wish., 1959, 55, 731-733). This method comprises placing a pressure forceps at the base of the tail of a mouse and recording the number of bites self-inflicted by the animal in its endeavour to remove the forceps. The decrease of the number of bites prior and subsequent to oral administration of the test compound at a dosage of 100 mg/kg provides a measure of the antalgic activity of the derivatives of this invention.

mice = experiment: Antalgic action, acetic acid method according to Koster, Anderson & de Beer; type: in vivo; conditions: 100 mg/kg oral, 30 minutes prior to i.p. acetic acid
From the text: (b) Acetic acid method, according to Koster, Anderson & de Beer (Fed. Proced., 18, 1959, 412, 1, 626)
Intraperitoneal injection of a dilute acetic acid solution induces, in mice, characteristic writhing movements which are repeated due to the effect of pain.

[3] = system: carrageenin-induced edema; experiment: Localized carrageenin-induced edema method; type: in vivo; conditions: rats, 100 mg/kg oral one hour before, with, and 1 and 2.5 hours after carrageenin
Experimental: 0.1 ml of a 1% carrageenin solution is injected at time O in the metatarsal flexor muscles of the right hind limb of rats.
The animals of the treated group are additionally orally administered 100 mg/kg of the test derivative, respectively one hour prior to, and then simultaneously with the phlogogenic agent, and then one hour and 2.5 hours thereafter. The determinations effected with a ROCH micrometer at times 0, 1 hr, 2 hrs, 3 hrs and 5 hrs after carrageenin administration make it possible to determine the percent anti-inflammatory activity, as a function of time.

[4] = system: ovalbumin-induced systemic edema; experiment: Ovalbumin-induced systemic edema method; type: in vivo; conditions: rats, 100 mg/kg oral one hour before and with ovalbumin
Experimental: Rats are administered a simultaneous intraperitoneal injection of 1 ml ovalbumin and 0.5 ml of a 1% aqueous Evans Blue solution. The animals of the treated group are additionally orally administered 100 mg/kg of the test derivative, one hour prior to ovalbumin administration and then simultaneously with said ovalbumin administration. The intensity of the phenomenon thus induced is rated according to a scale from 1 to 5, according to the progress of the inflammatory syndrome. The determinations are effected after 2 hours and after 3 hours. Thus are determined the mean intensity of the edema and the percent decrease of the edema reaction.

Structure (SMILES)	inhibition at 100 mg/kg [1] [%]	inhibition at 100 mg/kg [2] [%]	mean percent antalgia after 30 min. (mouse) [%]	mean percent antalgia after 1 hr (mouse) [%]	mean percent antalgia after 2 hrs (mouse) [%]	mean percent antalgia after 3 hrs (mouse) [%]	percent antalgia (mice) [%]	Percent anti-inflammatory activity after 1 hour [3] [%]	Percent anti-inflammatory activity after 2 hours [3] [%]	Percent anti-inflammatory activity After 3 hours [3] [%]	Percent decrease of the edema reaction After 2 hours [4] [%]	Percent decrease of the edema reaction After 3 hours [4] [%]
O=C1c2ccsc2CCN1Cc1ccccc1 [Derivative n°2, 4-Oxo-5-benzyl-4,5,6,7-tetrahydro-thieno[3,2-c]pyridine]	61.5	91.2	71	65	58	51	68	36	47	53	42	50
CC(=O)N1CCc2sccc2C1=O [Derivative n°5, 4-Oxo-5-acetyl-4,5,6,7-tetrahydro-thieno[3,2-c]pyridine]	63.2	92.6	66	60	54	48	64	39	51	55	38	47
O=C1NCCc2sccc21 [Derivative n°7, 4-Oxo-4,5,6,7-tetrahydro-thieno[3,2-c]pyridine]	62.3	92.6	78	76	72	64	75	44	55	63	51	63
COc1cc(COC(=O)C2Cc3sccc3C(=O)N2Cc2cc(OC)c(OC)c(OC)c2)cc(OC)c1OC (stereo not drawn) [Derivative n°15, 4-Oxo-6-(3,4,5-trimethoxy-benzyloxycarbonyl)-5-(3,4,5-trimethoxybenzyl)-4,5,6,7-tetrahydro-thieno[3,2-c]pyridine]	61.8	91.6	73	67	63	56	69	40	52	57	48	58
